Assay results taken from ChEMBL document CHEMBL1130066, “Toward a novel metal-based chemotherapy against tropical diseases. 3. Synthesis and antimalarial activity in vitro and in vivo of the new gold-chloroquine complex [Au(PPh3)(CQ)]PF6” (J Med Chem, 1997).

Tests used:
Plasmodium falciparum [1] = test: In vitro growth inhibition as IC50 against chloroquine-resistant Plasmodium falciparum FcB1; assay type: functional, organism-based
Plasmodium falciparum [2] = test: In vitro growth inhibition as IC50 against chloroquine-resistant Plasmodium falciparum FcB2; assay type: functional, organism-based
Mus musculus [3] = test: In vivo activity against Plasmodium berghei parasitaemia.; assay type: functional, organism-based
Mus musculus [4] = test: In vivo activity against Plasmodium berghei parasitaemia; assay type: functional

4N-(4-diethylamino-1-methylbutyl)-7-chloro-4-quinolinamine 1-N-[Au(PPh3)] compound with PF6- [listing 1 of 2 here]
IC50 (Plasmodium falciparum [1]): 5.1 nM | IC50 (Plasmodium falciparum [2]): 23 nM

4N-(4-diethylamino-1-methylbutyl)-7-chloro-4-quinolinamine 1-N-[Au(PPh3)] compound with PF6- [listing 2 of 2 here]
Parasitemia (Mus musculus [3]): 7%

CCN(CC)CCCC(C)Nc1ccnc2cc(Cl)ccc12.O=P(O)(O)O.O=P(O)(O)O (centres undefined) [CHLOROQUINE PHOSPHATE]
Parasitemia (Mus musculus [4]): 25%
